Publication PMC7094215, “Synthesis and Evaluation of Antileishmanial and Cytotoxic Activity of Benzothiopyrane Derivatives” (Molecules, 2020)

Legend:
[1] = system: intracellular amastigotes of L. panamensis (MHOM/CO/87/UA140-EGFP strain); experiment: In vitro antileishmanial activity on intracellular amastigotes (GFP, flow cytometry); assay type: cell-based, Leishmania (V) panamensis; conditions: for SI (Selectivity Index = LC50/EC50): LC50 U-937 / EC50 L. panamensis amastigotes; for EC50: intracellular amastigotes in U-937 cells, 72 h exposure, mean ± SD, Probit
Protocol: Antileishmanial activity of compounds was determined according to the ability of the compound to reduce the infection by L. panamensis parasites. For this, the antileishmanial activity was tested on intracellular amastigotes of L. panamensis transfected with the green fluorescent protein gene (MHOM/CO/87/UA140-EGFP strain). Briefly, U-937 human cells at a density of 3 × 10^5 cells/mL in RPMI 1640 and 0.1 μg/mL of PMA (phorbol-12-myristate-13-acetate) were dispensed on 24-wells microplate and then infected with stationary phase growing L. panamensis promastigotes in 15:1 parasites per cell ratio. Plates were incubated at 34 °C and 5% CO2 for 3 h, and then cells were washed twice with phosphate buffer solution (PBS) to eliminate not internalized parasites. Fresh RPMI-1640 was added into each well (1 mL), and plates were incubated again. After 24 h of infection, the RPMI-1640 medium was replaced by fresh culture medium containing each compound at four serial dilutions (50, 12.5, 3.125 and 0.78 μg/mL) and plates were then incubated at 37 °C and 5% CO2 during 72 h, then, cells were removed from the bottom plate with 100 µL of EDTA/trypsin (250 mg) solution. The cells were centrifuged at 1100 rpm during 10 min at 4 °C, the supernatant was discarded, and cells were washed with 1 mL of cold PBS and centrifuged at 1100 rpm for 10 min at 4 °C. Cells were washed two times employing PBS, as previously, and after the last wash, the supernatant was discarded, and cells were suspended in 500 μL of PBS.
Cells were analyzed by flow cytometry employing a flow cytometer (FC 500MPL, Cytomics, Beckman Coulter. Pasadena, CA, USA) reading at 488 nm (exciting) and 525 nm (emitting) over an argon laser and counting 10,000 events. Infected cells were determined according to the events for green fluorescence (parasites). All determinations for each compound and standard drug were carried out by triplicate, in two experiments. Infected cells exposed to control drug (amphotericin B) were used as the control for antileishmanial activity (positive control), while infected cells incubated in the absence of any compound or drug were used as another control for infection (negative control). Nonspecific fluorescence was corrected by subtracting the fluorescence of unstained cells. Determinations were done by triplicate in at least two independent experiments.
The antileishmanial activity was determined according to the reduction of the percentage of fluorescent parasites determined according to the median fluorescence intensity (MFI) obtained for each experimental condition by cytometry. The parasite values for each concentration of compound were calculated by Equation (3), where the % of parasites in control well, corresponds to 100% of parasites:(3) % Parasites=(MFI exposed parasites/MFI unexposed parasites)×100
Then, the inhibition percentage was calculated with Equation (4):(4) % Inhibitors of Parasites=100−(% Parasites)
Results of antileishmanial activities were expressed as the median effective concentrations (EC50) measured by Probit method.

[2] = Cytotoxic activity, MTT method; assay type: cell-based; conditions: human, LC50
Protocol: Cytotoxicity of the compounds was evaluated on human monocytes (U-937 ATCC CRL-1593.2) in an exponential growth phase and adjusted at 1 × 10^5 cells/mL in RPMI-1640 enriched with 10% fetal bovine serum (FBS). One hundred microliters of cell suspension were dispensed in each well of a 96-wells microplate, and then 100 μL of 200-50-12.5 and 3.125 μg/mL concentration of each compound or standard drug (amphotericin B) were added dissolved in PBS with 0.5% DMSO. Cell exposed to compounds or standard drugs were incubated 72 h at 37 °C and 5% of CO2. Cytotoxic activity of each compound was determined according to the effect on the cell viability by the MTT microenzymatic method in which 3-(4,5-dimethylthiazol-2-yl)-2,5-diphenyltetrazolium bromide is reduced to a purple formazan product by mitochondrial enzyme succinate dehydrogenase. Thus, 10 μL/well of MTT solution (5 mg/mL) was added to each well of exposed and unexposed cells, and plates were incubated at 37 °C, 5% CO2 during 3 h. The reaction was stopped by adding 100 μL/well of isopropanol with 50% and 10% of SDS (sodium dodecyl sulfate). The concentration of formazan was determined spectrophotometrically at 570 nm (Varioskan, Thermo, Waltham, MA, USA) and intensity of color (absorbance) was registered as O.D. Cells exposed to control drug (amphotericin B) were used as control for toxicity (positive control) while cell incubated in the absence of any compound or drug were used as control for viability (negative control). Non-specific absorbance was corrected by subtracting absorbance (O.D) of the blank. Determinations were done by triplicate in at least two independent experiments.
Cytotoxicity was determined according to viability and mortality percentages obtained for each experimental condition (synthesized compounds, amphotericin B, and culture medium). Results were expressed as the mean lethal concentrations (LC50), the concentration necessary to kill 50% of cells, calculated by the parametric method of linear regression that permits doses-response analysis (Probit analysis).
Initially, viability percentages were calculated by Equation (1), where the O.D of control well, corresponds to 100% of viability:(1) % Viability=(O.D. exposed cells/O.D. unexposed cells)×100
Then, the percentage of cell growth inhibition was calculated using Equation (2):(2) % Inhibition =100−(% Viability)
The toxicity was defined according to LC50 values, using the follow scale: Toxic; LC50 < 100 μM; moderately toxic; LC50 > 100 μM and < 200 μM and potentially nontoxic; LC50 > 200 μM.

[3] = Leishmania panamensis, U-937, 72 h

| SMILES | SI (Selectivity Index = LC50/EC50) [1] | EC50 [1, 3] [µM] | CC50 at 72 h [2] [µM] | EC50 [1] [µM] | antileishmanial activity (in words) ([1]; intracellular amastigotes of L. panamensis) |
| --- | --- | --- | --- | --- | --- |
| O=C1CC(C(=O)O)Sc2ccccc21 (racemic) [Compound 20a, 4-Oxothiochromane-2-carboxylic acid] | 0.3 | 414 ± 58.5 | 133 ± 67.7 |  |  |
| O=C1CC(C(=O)O)Sc2ccccc21 (stereo not drawn) [20a (+), 4-oxo-thiochroman-2-carboxylic acid] | > 0.1 |  | > 48.1 | 505 ± 133 |  |
| C[C@@H]1[C@H](O)[C@@H](C)/C=C/C=C/C=C/C=C/C=C/C=C/C=C/[C@H](O[C@@H]2O[C@H](C)[C@@H](O)[C@H](N)[C@@H]2O)C[C@@H]2O[C@](O)(C[C@@H](O)C[C@@H](O)[C@H](O)CC[C@@H](O)C[C@@H](O)CC(=O)O[C@H]1C)C[C@H](O)[C@H]2C(=O)O [Amphotericin B, reference compound] |  | 0.05 | 56.8 |  |  |
| N#CC1=Cc2ccccc2SC1 [Compound 8a, 2H-Thiochromene-3-carbonitrile] | 0.7 |  | 4 ± 0.6 |  |  |
| COC(=O)C1=Cc2ccccc2SC1 [Compound 8b, Methyl 2H-thiochromene-3-carboxylate] | 2.8 | 126 ± 15.5 | 352 ± 47.5 |  | practically inactive |
| CC(=O)C1=Cc2ccccc2SC1c1ccccc1 (stereo not drawn) [Compound 8c, 1-(2-Phenyl-2H-thiochromen-3-yl)ethan-1-one] | < 2.3 | > 2.6 | 6 ± 0.4 |  |  |
| CCCCCC1Sc2ccccc2C=C1C(C)=O (stereo not drawn) [Compound 8d, 1-(2-Pentyl-2H-thiochromen-3-yl)ethan-1-one] | 3.1 |  | 25.7 ± 4.6 |  |  |
| O=C(C1=Cc2ccccc2SC1c1ccccc1)C(F)(F)F (stereo not drawn) [Compound 8e] | 0.7 | 29.6 ± 6.2 | 21.2 ± 3.4 |  |  |
| N#CC1CSc2ccccc2C1=O (stereo not drawn) [Compound 9a, 4-Oxo-thiochromane-3-carbonitrile] | 7.2 | 108 ± 34.3 | 770 ± 49.7 |  |  |
| COC(=O)C1CSc2ccccc2C1=O (stereo not drawn) [Compound 9b + 10b, Methyl 4-oxo-thiochromane-3-carboxylate] | 3.6 | 134 ± 27 | 485 ± 45.4 |  |  |
| CCCCCC1Sc2ccccc2C(O)=C1C(C)=O (stereo not drawn) [Compound 10d, 1-(4-Hydroxy-2-pentyl-2H-thiochromen-3-yl)ethan-1-one] | 4.1 | < 20 | 51 ± 9 | 12.5 ± 3.3 |  |
| O=CC1=Cc2ccccc2SC1c1ccccc1 (stereo not drawn) [Compound 13a, 2-Phenyl-2H-thiochromene-3-carbaldehyde] | < 2.3 | > 23.8 | 54.7 ± 3.2 |  |  |
| O=CC1=Cc2ccccc2SC1c1ccc(F)cc1 (stereo not drawn) [Compound 13b, 2-(4-Fluorophenyl)-2H-thiochromene-3-carbaldehyde] | 0.3 | 29.7 ± 4.4 | 9.6 ± 0.4 |  |  |
| O=CC1=Cc2ccccc2SC1c1ccc(Cl)cc1 (stereo not drawn) [Compound 13c, 2-(4-Chlorophenyl)-2H-thiochromene-3-carbaldehyde] | 4.3 | 37 ± 5.6 | 161 ± 27.9 |  |  |
| O=CC1=Cc2ccccc2SC1c1ccccc1[N+](=O)[O-] (stereo not drawn) [Compound 13d, 2-(2-Nitrophenyl)-2H-thiochromene-3-carbaldehyde] | 2.6 |  | 23.9 ± 2.4 |  |  |
| O=C(C1=Cc2ccccc2SC1c1ccccc1)c1ccccc1 (stereo not drawn) [Compound 15a, Phenyl(2-phenyl-2H-thiochromen-3-yl)methanone] |  | 43.9 ± 11.6 | > 609 |  |  |
| O=C(C1=Cc2ccccc2SC1c1ccc(C(F)(F)F)cc1)c1ccc(Cl)cc1 (stereo not drawn) [Compound 15b, (4-Chlorophenyl)(2-(4-(trifluoromethyl)phenyl)-2H-thiochromen-3-yl)methanone] | 2.6 | 37.9 ± 2.8 | 97.2 ± 14.2 |  |  |
| O=C(C1=Cc2ccccc2SC1c1ccc([N+](=O)[O-])cc1)c1ccc(Cl)cc1 (stereo not drawn) [Compound 15c, (4-Chlorophenyl)(2-(4-nitrophenyl)-2H-thiochromen-3-yl)methanone] | 4.0 | 38.1 ± 11.3 | 151 ± 18.1 |  |  |
| O=C1CC(C(=O)O)Sc2ccc(F)cc21 (stereo not drawn) [Compound 20b, 6-Fluoro-4-oxo-thiochromane-2-carboxylic acid] | 0.1 | 3520 ± 3010 | 210 ± 78.7 |  |  |
| COc1ccc2c(c1)C(=O)CC(C(=O)O)S2 (stereo not drawn) [Compound 20c, 6-Methoxy-4-oxo-thiochromane-2-carboxylic acid] | 0.2 | 494 ± 324 | 76.3 ± 8.6 |  |  |
| COc1ccc2c(c1)SC(C(=O)O)CC2=O (stereo not drawn) [Compound 20d, 7-Methoxy-4-oxo-thiochromane-2-carboxylic acid] | 0.3 | 277 ± 101 | 90.4 ± 16.4 |  |  |
| CCOC(=O)C1CC(=O)c2ccccc2S1 (stereo not drawn) [Compound 22a, Ethyl 4-oxo-thiochromane-2-carboxylate] | < 3.1 | > 68.5 | 211.1 ± 0.7 |  |  |
| CCCCOC(=O)C1CC(=O)c2ccccc2S1 (stereo not drawn) [Compound 22b, Butyl 4-oxo-thiochromane-2-carboxylate] | < 1.2 | > 189 | 231 ± 44.5 |  |  |
| CCCCCCOC(=O)C1CC(=O)c2ccccc2S1 (stereo not drawn) [Compound 22c, Hexyl 4-oxo-thiochromane-2-carboxylate] | < 2.1 | > 103 | 213 ± 47.9 |  |  |
| CCCCCCCCCCOC(=O)C1CC(=O)c2ccccc2S1 (stereo not drawn) [Compound 22d, Decyl 4-oxo-thiochromane-2-carboxylate] | < 1.0 | > 144 | 140 ± 20.7 |  |  |
| CCCCCCNC(=O)C1CC(=O)c2ccccc2S1 (stereo not drawn) [Compound 24a, N-hexyl-4-oxo-thiochromane-2-carboxamide] | 0.7 | 216 ± 2.5 | 157 ± 9.7 |  |  |
| CCCCCCCCCCCCNC(=O)C1CC(=O)c2ccccc2S1 (stereo not drawn) [Compound 24b, N-dodecyl-4-oxo-thiochromane-2-carboxamide] | < 1.8 | > 80 | 148 ± 45.4 |  |  |
